# In paper PMC5051273 (Phytotherapy research : PTR, 2015):
# Target: mammalian target of rapamycin (mTOR) (Homo sapiens, UniProt P42345)
# Test: Invitrogen Z'-LYTE kinase assay, five concentrations
# Type: biochemical
structure (smiles),measurement,value
C/C=C(/C=O)[C@@H](CC=O)CC(=O)OCCc1ccc(O)cc1 [oleocanthal],IC50,708 nM
